Results published in US20250282785A1, “PYRROLIDINONE DERIVATIVES AS INHIBITORS OF NF KAPPA B INDUCING KINASE” (priority 2022, published 2025).

Assays:
[1] = target: Recombinant Human NF-Kappab-Inducing Kinase (NIK/MAP3K14) (Homo sapiens, UniProt Q99558); assay: Inhibition of auto-phosphorylation of recombinant human NIK/MAP3K14 (AlphaScreen); format: biochemical; details: NIK/MAP3K14 auto-phosphorylation, 5 microM ATP, 1 nM enzyme, 2 h at 25° C.; average of values; read-out: Assay 1 IC50
Experimental: Biological Assay 1: Inhibition of Auto-Phosphorylation of Recombinant Human NF-Kappab-Inducing Kinase (NIK/MAP3K14) Activity (AlphaScreen®)
NIK/MAP3K14 auto-phosphorylation activity was measured using the AlphaScreen® ((αscreen) format (Perkin ElmeR). All compounds tested were dissolved in dimethyl sulfoxide (DMSO) and further dilutions were made in assay buffer. Final DMSO concentration was 0.7% (v/v) in assays. Assay buffer was 50 mM Tris pH 7.5 containing 1 mM EGTA (ethylene glycol tetraacetic acid), 1 mM DTT (dithiothreitol), 0.1 mM Na3VO4, 5 mM MgCl2, 0.01% Tween® 20. Assays were carried out in 384 well Proxiplates (Perkin ElmeR). Incubations consisted of compound, 5 microM Adenosine-5′-triphosphate (ATP), and 1 nM NIK/MAP3K14. Incubations were initiated by addition of GST-tagged NIK/MAP3K14 enzyme, carried out for 2 h at 25° C. and terminated by addition of stop buffer containing anti-phospho-IKK Ser176/180 antibody. Protein A Acceptor and Glutathione-donor beads were added before reading using an EnVision® Multilabel Plate Reader (Perkin ElmeR). Signal obtained in the wells was normalized using high (full enzyme activity, 0.7% DMSO) and low controls (no enzyme activity, 0.7% DMSO, no ATP). IC50's were determined by fitting a sigmoidal curve to % inhibition of control versus Log10 compound concentration.

[2] = system: p-IKKα levels in L363 (NIK translocated multiple myeloma) cells; assay: Effect of compounds on p-IKKα levels in L363 cells (AlphaLISA SureFire Ultra); format: cell-based; details: Homo sapiens, L-363; L363 cells, BAFF stimulated, MG132, 6 h; average of values; read-out: Assay 2 IC50
Experimental: Biological Assay 2: Effect of Compounds on p-IKKα Levels in L363 (NIK Translocated Multiple Myeloma) Cells
All compounds tested were dissolved and serially diluted in DMSO, 1:3 dilution for 11 points in an Echo compatible plate. 100% DMSO is added to columns 12 and 24 of the plate to serve as high and low signal controls. This compound plate was used to spot 20 nl of compound or DMSO into a Greiner 384 well TC plate (781080). Final DMSO concentration was […] (v/v) in cell assays. Human L363 cells (ATCC) were cultured in RPMI 1640 medium supplemented with GlutaMax, non-essential amino acids, sodium pyruvate and 10% fetal bovine serum. Cells were routinely maintained at densities of 0.2×10^6 cells per ml −2×10^6 cells per ml at 37° C. in a humidified 5% CO2 atmosphere incubator. Cells were passaged twice a week splitting back to obtain the low density. The day before the assay, cells were washed twice in HBSS, resuspended in DMEM+0.5% IgG and protease free BSA (Jackson Immuno Research Laboratories), +/−250 ng/ml recombinant human B-cell activating factor (BAFF/BLyS/TNFSF13B) and incubated overnight at 37° C. in a humidified 5% CO2 atmosphere (bulk stimulation with or without BAFF). The next day, cell concentration was adjusted to 1×10^7 cells/ml in DMEM+/−250 ng/ml BAFF+/−10 uM MG132 and plated at 10 ul/well into compound or DMSO spotted 384 well TC plates. Seeded cells were incubated at 37° C. in a humidified 5% CO2 atmosphere for 6 h. After 6 h, plates were removed from the incubator and cell lysis was achieved by the addition of 2.5 μl 5× lysis buffer containing protease and phosphatase inhibitors, followed by shaking on a plate shaker at room temperature for 15 min. At the end of this incubation, lysed cells were sequentially treated and incubated with acceptor and donor bead mixes according to the manufacturer's protocol for a 1 plate/2-incubation suspension cell assay (AlphaLISA SureFire Ultra p-IKKα (Ser 176/180) Assay Kit (Perkin ElmeR). Plates were read using an EnVision® Multilabel Plate Reader (Perkin ElmeR). Within an experiment, a concentration response curve for each compound was run in duplicate. Signal obtained in the test wells was normalized using high signal (BAFF stimulated cells, DMSO, MG132) and low signal (unstimulated cells, DMSO) controls. To determine the IC50, a sigmoidal curve was fitted to the plot of % inhibition versus Log10 compound concentration.

Recombinant Human NF-Kappab-Inducing Kinase (NIK/MAP3K14), sequence (Q99558 whole entry): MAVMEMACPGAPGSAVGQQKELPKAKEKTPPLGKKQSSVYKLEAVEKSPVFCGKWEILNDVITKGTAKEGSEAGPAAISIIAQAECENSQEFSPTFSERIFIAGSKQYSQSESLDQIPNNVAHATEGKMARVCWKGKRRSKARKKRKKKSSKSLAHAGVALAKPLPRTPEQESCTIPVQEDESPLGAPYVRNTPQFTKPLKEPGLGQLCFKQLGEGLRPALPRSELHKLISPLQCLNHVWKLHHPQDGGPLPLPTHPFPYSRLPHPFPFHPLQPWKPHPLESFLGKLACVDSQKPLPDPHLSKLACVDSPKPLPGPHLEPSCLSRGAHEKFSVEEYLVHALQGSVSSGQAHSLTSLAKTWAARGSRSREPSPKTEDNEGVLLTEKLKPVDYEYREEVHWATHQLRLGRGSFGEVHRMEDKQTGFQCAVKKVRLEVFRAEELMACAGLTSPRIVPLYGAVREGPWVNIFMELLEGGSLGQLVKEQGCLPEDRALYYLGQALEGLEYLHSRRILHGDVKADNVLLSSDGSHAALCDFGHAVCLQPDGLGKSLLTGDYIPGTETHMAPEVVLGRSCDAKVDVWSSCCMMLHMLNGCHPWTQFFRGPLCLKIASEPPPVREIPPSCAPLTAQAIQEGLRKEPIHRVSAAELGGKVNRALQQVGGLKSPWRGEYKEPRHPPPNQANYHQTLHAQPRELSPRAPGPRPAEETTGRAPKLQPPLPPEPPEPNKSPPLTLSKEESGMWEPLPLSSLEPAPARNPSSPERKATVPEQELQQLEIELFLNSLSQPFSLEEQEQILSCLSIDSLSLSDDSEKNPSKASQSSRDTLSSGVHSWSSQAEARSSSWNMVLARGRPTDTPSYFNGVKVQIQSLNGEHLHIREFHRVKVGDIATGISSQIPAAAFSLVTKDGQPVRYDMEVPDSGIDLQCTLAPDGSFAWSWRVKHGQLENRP

SMILES	IC50 [1] [nM]	IC50 [2] [nM]
Cc1ccc(-c2cccc(-c3cc([C@]4(O)CCN(C)C4=O)on3)c2)nc1C(N)=O [Example 154, (R)-6-(3-(5-(3-Hydroxy-1-methyl-2-oxopyrrolidin-3-yl)isoxazol-3-yl)phenyl)-3-methylpicolinamide]	< 100	> 501
CN1CC[C@@](O)(c2cc(-c3cccc(-c4nc(C(N)=O)c(C(F)F)s4)c3)no2)C1=O [Example 222, (R)-5-(Difluoromethyl)-2-(3-(5-(3-hydroxy-1-methyl-2-oxopyrrolidin-3-yl)isoxazol-3-yl)phenyl)thiazole-4-carboxamide]	< 100	100 to 500
Cc1ncc(-c2cc(C(N)=O)nc(-c3cccc(-c4cc([C@]5(O)CCN(C)C5=O)on4)c3)c2)o1 [Example 186, (R)-6-(3-(5-(3-Hydroxy-1-methyl-2-oxopyrrolidin-3-yl)isoxazol-3-yl)phenyl)-4-(2-methyloxazol-5-yl)picolinamide]	< 100	100 to 500
COc1cc(C(N)=O)nc(-c2cccc(-c3cc([C@]4(O)CCN(C)C4=O)on3)c2)c1 [Example 8, (R)-6-(3-(5-(3-Hydroxy-1-methyl-2-oxopyrrolidin-3-yl)isoxazol-3-yl)phenyl)-4-methoxypicolinamide]	< 100	100 to 500
CN1CC[C@@](O)(c2cc(-c3cccc(-c4ccc5occc5n4)c3)no2)C1=O [Example 66, (R)-3-(3-(3-(Furo[3,2-b]pyridin-5-yl)phenyl)isoxazol-5-yl)-3-hydroxy-1-methylpyrrolidin-2-one]	> 501	> 501
CN1CC[C@@](O)(c2cc(-c3cccc(-c4cc(-c5ccnn5C5CC5)cc(C(N)=O)n4)c3)no2)C1=O [Example 185, (R)-4-(1-Cyclopropyl-1H-pyrazol-5-yl)-6-(3-(5-(3-hydroxy-1-methyl-2-oxopyrrolidin-3-yl)isoxazol-3-yl)phenyl)picolinamide]	< 100	> 501
COc1cc(C(N)=O)nc(-c2cc(-c3cc([C@]4(O)CCN(C)C4=O)on3)ccn2)c1 [Example 21, (R)-4′-(5-(3-Hydroxy-1-methyl-2-oxopyrrolidin-3-yl)isoxazol-3-yl)-4-methoxy-[2,2′-bipyridine]-6-carboxamide]	< 100	> 501
CN1CC[C@@](O)(c2cc(-c3cccc(-c4ccn5cncc5c4)c3)no2)C1=O [Example 67, (R)-3-Hydroxy-3-(3-(3-(imidazo[1,5-a]pyridin-7-yl)phenyl)isoxazol-5-yl)-1-methylpyrrolidin-2-one]	100 to 500	> 501
CN1CC[C@@](O)(c2cc(-c3cccc(-c4nc(C(N)=O)c(N)c(C5CC5)n4)c3)no2)C1=O [Example 132, (R)-5-Amino-6-cyclopropyl-2-(3-(5-(3-hydroxy-1-methyl-2-oxopyrrolidin-3-yl)isoxazol-3-yl)phenyl)pyrimidine-4-carboxamide]	< 100	< 100
Cc1ccc(-c2cc([C@]3(O)CCN(C)C3=O)no2)cc1-c1nc2c(N)ncnc2s1 [Example 175, (R)-3-(5-(3-(7-Aminothiazolo[5,4-d]pyrimidin-2-yl)-4-methylphenyl)isoxazol-3-yl)-3-hydroxy-1-methylpyrrolidin-2-one]	< 100	> 501
CN1CC[C@@](O)(c2cc(-c3cccc(-c4ccc5c(c4)N(C)C(=O)CN5)c3)no2)C1=O [Example 80, (R)-7-(3-(5-(3-Hydroxy-1-methyl-2-oxopyrrolidin-3-yl)isoxazol-3-yl)phenyl)-1-methyl-3,4-dihydroquinoxalin-2(1H)-one]	> 501	> 501
CN1CC[C@@](O)(c2cc(-c3ccc(-c4cccc(C(N)=O)n4)o3)no2)C1=O [Example 164, (R)-6-(5-(5-(3-Hydroxy-1-methyl-2-oxopyrrolidin-3-yl)isoxazol-3-yl)furan-2-yl)picolinamide]	< 100	> 501
CN1CC[C@@](O)(c2cnn(-c3cccc(-c4cccc(C(N)=O)n4)c3)c2)C1=O (single isomer, unassigned) [Example 29]	> 501	> 501
CC(C)N1CCn2c(-c3cccc(-c4cc([C@]5(O)CCN(C)C5=O)on4)c3)nc(C(N)=O)c2C1 [Example 233, (R)-3-(3-(5-(3-Hydroxy-1-methyl-2-oxopyrrolidin-3-yl)isoxazol-3-yl)phenyl)-7-isopropyl-5,6,7,8-tetrahydroimidazo[1,5-a]pyrazine-1-carboxamide]	> 501	> 501
CN1CC[C@@](O)(c2cc(-c3ccc(F)c(-c4cc(C5CC5)c(N)c(C(N)=O)n4)c3)no2)C1=O [Example 245, (R)-3-Amino-4-cyclopropyl-6-(2-fluoro-5-(5-(3-hydroxy-1-methyl-2-oxopyrrolidin-3-yl)isoxazol-3-yl)phenyl)picolinamide]	< 100	< 100
CN1CC[C@@](O)(c2cc(-c3cccc(-c4cc(-c5c[nH]nc5C5CC5)cc(C(N)=O)n4)c3)no2)C1=O [Example 190, (R)-4-(3-Cyclopropyl-1H-pyrazol-4-yl)-6-(3-(5-(3-hydroxy-1-methyl-2-oxopyrrolidin-3-yl)isoxazol-3-yl)phenyl)picolinamide]	< 100	> 501
CN1CCC(O)(c2cc(-c3cccc(Nc4nc5c(N)ncnc5s4)c3)on2)C1=O (racemic) [Example 176, (R,S)-3-(5-(3-((7-Aminothiazolo[5,4-d]pyrimidin-2-yl)amino)phenyl)isoxazol-3-yl)-3-hydroxy-1-methylpyrrolidin-2-one]	> 501	> 501
CN1CC[C@@](O)(c2cc(-c3cccc(-c4nc(C(N)=O)n5ccccc45)c3)no2)C1=O [Example 23, (R)-1-(3-(5-(3-Hydroxy-1-methyl-2-oxopyrrolidin-3-yl)isoxazol-3-yl)phenyl)imidazo[1,5-a]pyridine-3-carboxamide]	< 100	< 100
CN1CC[C@@](O)(c2cc(-c3cccc(-c4ccc5[nH]nc(N)c5n4)c3)no2)C1=O [Example 4, (R)-3-(3-(3-(3-Amino-1H-pyrazolo[4,3-b]pyridin-5-yl)phenyl)isoxazol-5-yl)-3-hydroxy-1-methylpyrrolidin-2-one]	< 100	> 501
CN1CC[C@@](O)(c2cc(-c3cccc(-c4ncc5ccnc(N)c5n4)c3)no2)C1=O [Example 10, (R)-3-(3-(3-(8-Aminopyrido[3,4-d]pyrimidin-2-yl)phenyl)isoxazol-5-yl)-3-hydroxy-1-methylpyrrolidin-2-one]	< 100	> 501
[2H]C1([2H])N(C)C(=O)[C@](O)(c2cc(-c3cccc(-c4nc(C(N)=O)n5c4CCCC5)c3)no2)C1([2H])[2H] [Example 180, (R)-1-(3-(5-(3-Hydroxy-1-methyl-2-oxopyrrolidin-3-yl-4,4,5,5-d4)isoxazol-3-yl)phenyl)-5,6,7,8-tetrahydroimidazo[1,5-a]pyridine-3-carboxamide]	< 100	100 to 500
CC(=O)N1CC(Nc2sc(-c3cccc(-c4cc([C@]5(O)CCN(C)C5=O)on4)c3)nc2C(N)=O)C1 [Example 216, (R)-5-((1-Acetylazetidin-3-yl)amino)-2-(3-(5-(3-hydroxy-1-methyl-2-oxopyrrolidin-3-yl)isoxazol-3-yl)phenyl)thiazole-4-carboxamide]	< 100	> 501
